Source: PMC6225228, “Design, Synthesis and Evaluation of N-pyrazinylbenzamides as Potential Antimycobacterial Agents” (Molecules : A Journal of Synthetic Chemistry and Natural …, 2018)
Converted amounts (≈) assume the structure as drawn. Read-outs that look alike come from different tables or passages of the source.

What was measured:
[1] = tested on: Candida albicans ATCC 44859; experiment: Antifungal microdilution broth, CA; assay type: cell-based; settings: Candida albicans, read-out: MIC CA
Candida tropicalis 156 = experiment: Antifungal microdilution broth, CT; assay type: cell-based; settings: read-out: MIC CT
Candida krusei E28 = experiment: Antifungal microdilution broth, CK; assay type: cell-based; settings: Pichia kudriavzevii, read-out: MIC CK
Candida glabrata 20/I = experiment: Antifungal microdilution broth, CG; assay type: cell-based; settings: Nakaseomyces glabratus, 20/I, read-out: MIC CG
Trichosporon asahii 1188 = experiment: Antifungal microdilution broth, TA; assay type: cell-based; settings: read-out: MIC TA
[2] = tested on: Aspergillus fumigatus 231; experiment: Antifungal microdilution broth, AF; assay type: cell-based; settings: read-out: MIC AF
[3] = tested on: Lichtheimia corymbifera 272; experiment: Antifungal microdilution broth, LC; assay type: cell-based; settings: read-out: MIC LC
[4] = tested on: Trichophyton interdigitale 445; experiment: Antifungal microdilution broth, TI; assay type: cell-based; settings: read-out: MIC TI
[5] = tested on: Mycobacterium smegmatis CCM 4622 (ATCC 607); experiment: Antimycobacterial microdilution, M. smegmatis; assay type: cell-based; settings: Middlebrook 7H9 with OADC, resazurin; for MIC: Mycolicibacterium smegmatis, read-out: M. smeg. ATCC 607 MIC
[6] = tested on: Mycobacterium tuberculosis H37Rv CNCTC My 331/88 (ATCC 27294); experiment: Antimycobacterial microdilution MABA, M. tuberculosis; assay type: cell-based; settings: Middlebrook 7H9 with OADC growth supplement, pH = 6.6, MABA; for MIC: Mycobacterium tuberculosis, read-out: Mtb H37Rv ATCC 27294 MIC
[7] = tested on: M. kansasii CNCTC My 235/80 (ATCC 12478); experiment: Antimycobacterial microdilution MABA, M. kansasii; assay type: cell-based, Mycobacterium kansasii; settings: for MIC: Mycobacterium kansasii
[8] = tested on: M. avium ssp. avium CNCTC My 80/72 (ATCC 15769); experiment: Antimycobacterial microdilution MABA, M. avium; assay type: cell-based, Mycobacterium avium; settings: for MIC: Mycobacterium avium
[9] = Trichosporon asahii, 1188, 24 h
[10] = Trichosporon asahii, 1188, 48 h
[11] = Aspergillus fumigatus, 231, 24 h
[12] = Aspergillus fumigatus, 231, 48 h
[13] = Lichtheimia corymbifera, 272, 24 h
[14] = Lichtheimia corymbifera, 272, 48 h
[15] = Trichophyton interdigitale, 445, 72 h
[16] = Trichophyton interdigitale, 445, 120 h
[17] = Middlebrook 7H9 with OADC, pH 6.6, MABA

## C[C@@H]1[C@H](O)[C@@H](C)/C=C/C=C/C=C/C=C/C=C/C=C/C=C/[C@H](O[C@@H]2O[C@H](C)[C@@H](O)[C@H](N)[C@@H]2O)C[C@@H]2O[C@](O)(C[C@@H](O)C[C@@H](O)[C@H](O)CC[C@@H](O)C[C@@H](O)CC(=O)O[C@H]1C)C[C@H](O)[C@H]2C(=O)O [AMPB, amphotericin B, reference compound]
[1]; ATCC44859, 24 h
  MIC: 0.12 µM (≈ 0.111 µg/mL)
[1]; ATCC44859, 48 h
  MIC: 0.49 µM (≈ 0.453 µg/mL)
Candida tropicalis 156; Candida tropicalis, 156, 24 h
  MIC: 1.95 µM (≈ 1.8 µg/mL)
Candida tropicalis 156; Candida tropicalis, 156, 48 h
  MIC: 1.95 µM (≈ 1.8 µg/mL)
Candida krusei E28; E28, 24 h
  MIC: 1.95 µM (≈ 1.8 µg/mL)
Candida krusei E28; E28, 48 h
  MIC: 1.95 µM (≈ 1.8 µg/mL)
Candida glabrata 20/I; 24 h
  MIC: 0.98 µM (≈ 0.906 µg/mL)
Candida glabrata 20/I; 48 h
  MIC: 1.95 µM (≈ 1.8 µg/mL)
Trichosporon asahii 1188; [9]
  MIC: 0.49 µM (≈ 0.453 µg/mL)
Trichosporon asahii 1188; [10]
  MIC: 0.98 µM (≈ 0.906 µg/mL)
[2]; [11]
  MIC: 1.95 µM (≈ 1.8 µg/mL)
[2]; [12]
  MIC: 1.95 µM (≈ 1.8 µg/mL)
[3]; [13]
  MIC: 7.81 µM (≈ 7.22 µg/mL)
[3]; [14]
  MIC: 7.81 µM (≈ 7.22 µg/mL)
[4]; [15]
  MIC: 1.95 µM (≈ 1.8 µg/mL)
[4]; [16]
  MIC: 1.95 µM (≈ 1.8 µg/mL)

## O=C(O)c1cn(C2CC2)c2cc(N3CCNCC3)c(F)cc2c1=O [CPX, ciprofloxacin, reference compound]
[5]
  MIC: 0.195 µg/mL (≈ 0.589 µM)

## O=C(Nc1cncc(Cl)n1)c1ccccc1O [Compound 3b]
[6]
  Mtb H37Rv ATCC 27294 MIC: > 100 µg/mL
[7]; [17]
  M. kans. ATCC 12478 MIC: > 100 µg/mL
[8]; [17]
  M. avium ATCC 15769 MIC: > 100 µg/mL
[5]
  M. smeg. ATCC 607 MIC: 250 µg/mL

## CCc1ccc(C(=O)Nc2cncc(Cl)n2)cc1 [Compound 3i]
[6]
  MIC: > 100 µg/mL
[7]; ATCC12478, Middlebrook 7H9 with OADC, pH 6.6, MABA, read-out: M. kans. ATCC 12478 MIC
  MIC: > 100 µg/mL
[8]; ATCC15769, Middlebrook 7H9 with OADC, pH 6.6, MABA, read-out: M. avium ATCC 15769 MIC
  MIC: > 100 µg/mL
[5]
  MIC: ≥ 500 µg/mL

## OC(Cn1cncn1)(Cn1cncn1)c1ccc(F)cc1F [FLU, fluconazole, reference compound]
[1]; ATCC44859, 24 h
  MIC: 0.24 µM (≈ 0.0735 µg/mL)
[1]; ATCC44859, 48 h
  MIC: 0.24 µM (≈ 0.0735 µg/mL)
Candida tropicalis 156; Candida tropicalis, 156, 24 h
  MIC: > 500 µM
Candida tropicalis 156; Candida tropicalis, 156, 48 h
  MIC: > 500 µM
Candida krusei E28; E28, 24 h
  MIC: 125 µM (≈ 38.3 µg/mL)
Candida krusei E28; E28, 48 h
  MIC: 250 µM (≈ 76.6 µg/mL)
Candida glabrata 20/I; 24 h
  MIC: 31.2 µM (≈ 9.57 µg/mL)
Candida glabrata 20/I; 48 h
  MIC: 250 µM (≈ 76.6 µg/mL)
Trichosporon asahii 1188; [9]
  MIC: 250 µM (≈ 76.6 µg/mL)
Trichosporon asahii 1188; [10]
  MIC: 500 µM (≈ 153 µg/mL)
[2]; [11]
  MIC: > 500 µM
[2]; [12]
  MIC: > 500 µM
[3]; [13]
  MIC: > 500 µM
[3]; [14]
  MIC: > 500 µM
[4]; [15]
  MIC: 7.81 µM (≈ 2.39 µg/mL)
[4]; [16]
  MIC: 125 µM (≈ 38.3 µg/mL)

## NNC(=O)c1ccncc1 [INH, isoniazid, reference compound]
[6]
  Mtb H37Rv ATCC 27294 MIC: 0.1 to 0.39 µg/mL
  MIC: 0.1 to 0.2 µg/mL (≈ 0.729 to 1.46 µM)
[7]; [17]
  M. kans. ATCC 12478 MIC: 6.25 to 12.5 µg/mL
[7]; ATCC12478, pH 6.6, read-out: M. kans. ATCC 12478 MIC, Middlebrook 7H9 with OADC, pH 6.6, MABA
  MIC: 3.13 to 12.5 µg/mL (≈ 22.8 to 91.1 µM)
[8]; ATCC15769, pH 6.6, read-out: M. avium ATCC 15769 MIC
  MIC: 6.25 to 12.5 µg/mL (≈ 45.6 to 91.1 µM)
